Values quoted from earlier work in US20250065012A1, “DIRECTIONAL AND TEMPORAL RELEASE OF DRUGS FROM MEDICAL DEVICES” (NANO THERAPEUTICS PRIVATE LIMITED, priority 2022, published 2025).
Where a name gives a salt, the structure may show the parent alone.

Assays:
[1] = injected intravenously
[2] = system: platelet aggregation; conditions: after systemic administration

| increase in bleeding time [1] | increase in clotting time [1] | SMILES | platelet aggregation inhibition [2] |
| --- | --- | --- | --- |
| 3-4 fold | 3-4 fold | CCCCS(=O)(=O)N[C@@H](Cc1ccc(OCCCCC2CCNCC2)cc1)C(=O)O [Tirofiban HCl] |  |
|  |  | CCCCS(=O)(=O)N[C@@H](Cc1ccc(OCCCCC2CCNCC2)cc1)C(=O)O [Tirofiban] | up to 96% |
